Measured values taken from PubChem BioAssay (NCI).
Several values for one entry are separate records, joined by “and”; a condition that tells them apart may be missing. Equal entries are not always repeated.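 Exposure lasted 48 hours, with cells grown in 96-well plates and compounds tested at five concentrations. GI50 marks 50% less growth. Definition used: TGI = concentration required for complete inhibition of growth.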

Experiments:
Test in all cases: NCI anticancer screen, dose series, 48 h
SK-OV-3 ovarian = tested on: SK-OV-3 ovarian
HCT-15 colon = tested on: HCT-15 colon
NCI-H522 lung = tested on: NCI-H522 lung
HCT-116 colon = tested on: HCT-116 colon
K-562 leukemia = tested on: K-562 leukemia
DU-145 prostate = tested on: DU-145 prostate
ACHN renal = tested on: ACHN renal
HS 578T breast = tested on: HS 578T breast
NCI-H23 lung = tested on: NCI-H23 lung
SK-MEL-2 melanoma = tested on: SK-MEL-2 melanoma
HCC-2998 colon = tested on: HCC-2998 colon
UACC-62 melanoma = tested on: UACC-62 melanoma
MOLT-4 leukemia = tested on: MOLT-4 leukemia
OVCAR-5 ovarian = tested on: OVCAR-5 ovarian
CCRF-CEM leukemia = tested on: CCRF-CEM leukemia
M14 melanoma = tested on: M14 melanoma
SR leukemia = tested on: SR leukemia
LOX IMVI melanoma = tested on: LOX IMVI melanoma
OVCAR-4 ovarian = tested on: OVCAR-4 ovarian
NCI-H226 lung = tested on: NCI-H226 lung
OVCAR-8 ovarian = tested on: OVCAR-8 ovarian
SN12C renal = tested on: SN12C renal
IGROV1 ovarian = tested on: IGROV1 ovarian
TK-10 renal = tested on: TK-10 renal
KM12 colon = tested on: KM12 colon
HL-60(TB) leukemia = tested on: HL-60(TB) leukemia
SNB-19 CNS = tested on: SNB-19 CNS
OVCAR-3 ovarian = tested on: OVCAR-3 ovarian
HOP-92 NSCLC = tested on: HOP-92 NSCLC
SF-539 CNS = tested on: SF-539 CNS
HOP-62 NSCLC = tested on: HOP-62 NSCLC
A498 renal = tested on: A498 renal
EKVX NSCLC = tested on: EKVX NSCLC
HT29 colon = tested on: HT29 colon
MCF7 breast = tested on: MCF7 breast
BT-549 breast = tested on: BT-549 breast
MDA-MB-231 breast = tested on: MDA-MB-231 breast
UACC-257 melanoma = tested on: UACC-257 melanoma
COLO 205 colon = tested on: COLO 205 colon
SF-295 CNS = tested on: SF-295 CNS
NCI/ADR-RES ovarian = tested on: NCI/ADR-RES ovarian
PC-3 prostate = tested on: PC-3 prostate
SK-MEL-5 melanoma = tested on: SK-MEL-5 melanoma
RXF 393 renal = tested on: RXF 393 renal
SF-268 CNS = tested on: SF-268 CNS
786-0 renal = tested on: 786-0 renal
NCI-H460 lung = tested on: NCI-H460 lung
MALME-3M melanoma = tested on: MALME-3M melanoma
UO-31 renal = tested on: UO-31 renal
U251 CNS = tested on: U251 CNS
T-47D breast = tested on: T-47D breast
A549 NSCLC = tested on: A549 NSCLC
SK-MEL-28 melanoma = tested on: SK-MEL-28 melanoma
MDA-MB-435 = tested on: MDA-MB-435
RPMI-8226 leukemia = tested on: RPMI-8226 leukemia
SW-620 colon = tested on: SW-620 colon

For `COC(=O)N[C@H]1C=C[C@@H]2/C=C(C)/C=C/[C@@H](C)[C@H]([C@H](C)[C@H](O)[C@@H](C)NC(C)=O)OC(=O)/C=C/C=C(C)\C=C\[C@]2(C)C1`, the GI50 (SK-OV-3 ovarian) was 6.7 nM, the GI50 (HCT-15 colon) was 8.93 nM and 7.36 nM and the TGI (HCT-15 colon) was greater than 45300 nM. The GI50 (NCI-H522 lung) was 61.3 nM and 38.8 nM, the TGI (NCI-H522 lung) was 19200 nM and the GI50 (HCT-116 colon) was 3.71 nM and 4.53 nM. The TGI (HCT-116 colon) was greater than 45300 nM, the GI50 (K-562 leukemia) was 14.6 nM and the TGI (K-562 leukemia) was greater than 45300 nM. For the same compound, the TGI (DU-145 prostate) was greater than 45300 nM, the GI50 (ACHN renal) was 4.53 nM and the TGI (ACHN renal) was greater than 45300 nM. For the same compound, the GI50 (HS 578T breast) was 29.3 nM and 16.5 nM, the TGI (HS 578T breast) was greater than 45300 nM and the GI50 (NCI-H23 lung) was 94.3 nM and 96.4 nM. The TGI (NCI-H23 lung) was greater than 45300 nM, the GI50 (SK-MEL-2 melanoma) was 7190 nM and the TGI (SK-MEL-2 melanoma) was 33100 nM. The TGI (HCC-2998 colon) was greater than 45300 nM, the GI50 (UACC-62 melanoma) was 18.9 nM and 19.6 nM and the TGI (UACC-62 melanoma) was 8920 nM. The GI50 (MOLT-4 leukemia) was 8510 nM, the TGI (MOLT-4 leukemia) was greater than 45300 nM and the GI50 (OVCAR-5 ovarian) was 8010 nM and 6550 nM. For the same compound, the TGI (OVCAR-5 ovarian) was greater than 45300 nM, the GI50 (CCRF-CEM leukemia) was 2580 nM and the TGI (CCRF-CEM leukemia) was greater than 45300 nM. The GI50 (M14 melanoma) was 3.69 nM and < 4.53 nM, the TGI (M14 melanoma) was 35.8 nM and < 4.53 nM and the GI50 (SR leukemia) was 7 nM and 4.53 nM. For the same compound, the TGI (SR leukemia) was 13400 nM, the GI50 (LOX IMVI melanoma) was 2.94 nM and 4.53 nM and the TGI (LOX IMVI melanoma) was 11 nM and 4.75 nM. The GI50 (OVCAR-4 ovarian) was 5920 nM, the TGI (OVCAR-4 ovarian) was greater than 45300 nM and the GI50 (NCI-H226 lung) was 28.3 nM and 5.04 nM. The TGI (NCI-H226 lung) was 9150 nM, the GI50 (OVCAR-8 ovarian) was 17.9 nM and 7.45 nM and the TGI (OVCAR-8 ovarian) was greater than 45300 nM. The GI50 (SN12C renal) was 8.13 nM and 5.18 nM, the TGI (SN12C renal) was greater than 45300 nM and the GI50 (IGROV1 ovarian) was 24.8 nM and 4.53 nM. For the same compound, the TGI (IGROV1 ovarian) was greater than 45300 nM, the GI50 (TK-10 renal) was 5120 nM and 5680 nM and the TGI (TK-10 renal) was greater than 45300 nM. The GI50 (KM12 colon) was 9.59 nM and 13.5 nM, the TGI (KM12 colon) was greater than 45300 nM and the GI50 (HL-60(TB) leukemia) was 7.22 nM and 5.48 nM. For the same compound, the TGI (HL-60(TB) leukemia) was 19600 nM, the GI50 (SNB-19 CNS) was 118 nM and 16.4 nM and the TGI (SNB-19 CNS) was greater than 45300 nM. For the same compound, the GI50 (OVCAR-3 ovarian) was 172 nM and 635 nM, the TGI (OVCAR-3 ovarian) was 16500 nM and the GI50 (HOP-92 NSCLC) was 2.11 nM and 4.53 nM. For the same compound, the TGI (HOP-92 NSCLC) was 44 nM and 26.8 nM, the GI50 (SF-539 CNS) was 4.13 nM and 4.53 nM and the TGI (SF-539 CNS) was 6550 nM. The GI50 (HOP-62 NSCLC) was 70.5 nM and 27.8 nM, the TGI (HOP-62 NSCLC) was greater than 45300 nM and the GI50 (A498 renal) was 13.2 nM and 13.5 nM. For the same compound, the TGI (EKVX NSCLC) was greater than 45300 nM, the GI50 (HT29 colon) was 6.18 nM and 4.53 nM and the TGI (HT29 colon) was greater than 45300 nM. The GI50 (MCF7 breast) was 8.26 nM and 4.53 nM, the TGI (MCF7 breast) was greater than 45300 nM and the GI50 (BT-549 breast) was 18.7 nM and 12.6 nM. For the same compound, the TGI (BT-549 breast) was 42100 nM, the GI50 (MDA-MB-231 breast) was 2.28 nM and 4.53 nM and the GI50 (UACC-257 melanoma) was 29 nM and 4.53 nM. The TGI (UACC-257 melanoma) was greater than 45300 nM, the GI50 (COLO 205 colon) was 14 nM and 11.3 nM and the TGI (COLO 205 colon) was 7070 nM. For the same compound, the GI50 (SF-295 CNS) was 3.71 nM and 4.53 nM, the GI50 (NCI/ADR-RES ovarian) was 28.2 nM and 16.1 nM and the TGI (NCI/ADR-RES ovarian) was greater than 45300 nM. The GI50 (PC-3 prostate) was 7.85 nM and 4.53 nM, the TGI (PC-3 prostate) was greater than 45300 nM and the GI50 (SK-MEL-5 melanoma) was 3.65 nM and 4.53 nM. For the same compound, the TGI (SK-MEL-5 melanoma) was 29.1 nM and 15 nM, the GI50 (RXF 393 renal) was 4.49 nM and 4.53 nM and the TGI (RXF 393 renal) was 16200 nM. The TGI (SF-268 CNS) was greater than 45300 nM, the GI50 (786-0 renal) was 16.5 nM and 7.46 nM and the TGI (786-0 renal) was greater than 45300 nM. The GI50 (NCI-H460 lung) was 13.5 nM and 6.97 nM, the TGI (NCI-H460 lung) was greater than 45300 nM and the GI50 (MALME-3M melanoma) was 1190 nM and 261 nM. For the same compound, the TGI (MALME-3M melanoma) was 10800 nM, the GI50 (UO-31 renal) was 7.47 nM and 4.53 nM and the TGI (UO-31 renal) was 28700 nM. For the same compound, the GI50 (U251 CNS) was 4.72 nM and 4.53 nM, the TGI (U251 CNS) was 24700 nM and the GI50 (T-47D breast) was 6.96 nM and 4.53 nM. The TGI (T-47D breast) was greater than 45300 nM, the GI50 (A549 NSCLC) was 31.2 nM and 4.53 nM and the TGI (A549 NSCLC) was greater than 45300 nM. For the same compound, the GI50 (SK-MEL-28 melanoma) was 12.1 nM and 10.2 nM, the TGI (SK-MEL-28 melanoma) was 13300 nM and the GI50 (MDA-MB-435) was 3.74 nM and 4.53 nM. The TGI (MDA-MB-435) was 10600 nM, the GI50 (RPMI-8226 leukemia) was 17.3 nM and 4.59 nM and the TGI (RPMI-8226 leukemia) was 21000 nM. For the same compound, the GI50 (SW-620 colon) was 8.92 nM and 4.53 nM and the TGI (SW-620 colon) was 16200 nM.
